Measurements as given in patent US11149031B2, “Substituted N-(3-fluoropropyl)-pyrrolidine compounds, processes for their preparation and therapeutic uses thereof” (SANOFI, priority 2016, dated 2021).
Read-outs that look alike come from different tables or passages of the source.

Columns and labels:
ERα in MCF7 cells = ERα in MCF7 cells (Homo sapiens (Human), UniProt P03372); assay: Test C: estrogen receptor degradation activity, ERα in cell western assay in MCF7 cells; type: cell-based; conditions: for DC50: 4 hours post compound addition, ERα in cell western, read-out: Degradation IC50; for % Degradation at 3 μM: 4 hours, relative to fulvestrant
Outline: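 In-cell western: ERα level (green) against DNA stain Syto-64 (red) by integrated intensity. MCF7 cells in hormone-depleted medium exposed 4 h to compound at 3-0.000018 μM final (1:5 series); fulvestrant 0.1 μM as positive control.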

[1] = test system: MCF7 cells (breast tumor cells) WT; assay: Test B: cell proliferation/viability assay (CellTiter-Glo) on MCF7 WT; type: cell-based; conditions: Homo sapiens, MCF7, 168 h, 7 days of compound exposure
Outline: (§1)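 Seven-day compound exposure, 9 concentrations from 3 to 0.000001 μM, in phenol red-free medium with 5% charcoal-stripped serum. ER Tyr537Ser and Asp538Gly lines derive from transfected MCF7 selected to grow without estradiol. Viability from CellTiter-Glo luminescence, background-corrected, as percent of untreated.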

[2] = target: His6-ERα298-554 D538G mutant (ERα ligand-binding domain) (Homo sapiens (Human), UniProt P03372, D538G); assay: Test A: biochemical antagonist activity, LanthaScreen TR-FRET ERα coactivator assay, D538G mutant; conditions: read-out: Antagonism D538G IC50
Outline: (§2)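 Compounds were added to receptor LBD (0.5 nM), terbium-labelled His6 antibody (0.5 nM), PGC1a coactivator peptide (250 nM) and estradiol at 3 nM or 10 nM. After incubating overnight at room temperature, the 520:495 nm ratio gave IC50 values by four-parameter logistic regression.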

[3] = test system: MCF7 cells expressing mutant estrogen receptor Tyr 537 Ser; assay: Test B: cell proliferation/viability assay (CellTiter-Glo) on MCF7 Tyr 537 Ser mutant; type: cell-based; conditions: Homo sapiens, MCF7, 168 h, MCF7 cells expressing ER Tyr 537 Ser mutant, 7 days of compound exposure, read-out: proliferation MCF7 Y537S IC50
Outline: as §1

[4] = target: His6-ERα298-554 WT (ERα ligand-binding domain) (Homo sapiens (Human), UniProt P03372); assay: Test A: biochemical antagonist activity, LanthaScreen TR-FRET ERα coactivator assay, WT; conditions: read-out: Antagonism WT IC50
Outline: as §2

[5] = target: His6-ERα298-554 Y537S mutant (ERα ligand-binding domain) (Homo sapiens (Human), UniProt P03372, Y537S); assay: Test A: biochemical antagonist activity, LanthaScreen TR-FRET ERα coactivator assay, Y537S mutant; conditions: read-out: Antagonism Y537S IC50
Outline: as §2

[6] = test system: MCF7 cells expressing mutant estrogen receptor Asp 538 Gly; assay: Test B: cell proliferation/viability assay (CellTiter-Glo) on MCF7 Asp 538 Gly mutant; type: cell-based; conditions: Homo sapiens, MCF7, 168 h, MCF7 cells expressing ER Asp 538 Gly mutant, 7 days of compound exposure, read-out: proliferation MCF7 D538G IC50
Outline: as §1

[7] = asterisk (*): protocol using 10 nM estradiol

Chain of His6-ERα298-554 Y537S mutant (ERα ligand-binding domain) (P03372 298-554 Y537S): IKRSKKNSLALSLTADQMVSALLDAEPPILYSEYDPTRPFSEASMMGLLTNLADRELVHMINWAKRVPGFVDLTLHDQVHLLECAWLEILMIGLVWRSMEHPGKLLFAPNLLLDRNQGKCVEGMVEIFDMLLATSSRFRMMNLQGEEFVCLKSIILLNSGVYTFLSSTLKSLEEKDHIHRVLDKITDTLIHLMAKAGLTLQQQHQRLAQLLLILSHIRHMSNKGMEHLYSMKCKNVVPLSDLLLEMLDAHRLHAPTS
Chain of ERα in MCF7 cells (P03372 whole entry): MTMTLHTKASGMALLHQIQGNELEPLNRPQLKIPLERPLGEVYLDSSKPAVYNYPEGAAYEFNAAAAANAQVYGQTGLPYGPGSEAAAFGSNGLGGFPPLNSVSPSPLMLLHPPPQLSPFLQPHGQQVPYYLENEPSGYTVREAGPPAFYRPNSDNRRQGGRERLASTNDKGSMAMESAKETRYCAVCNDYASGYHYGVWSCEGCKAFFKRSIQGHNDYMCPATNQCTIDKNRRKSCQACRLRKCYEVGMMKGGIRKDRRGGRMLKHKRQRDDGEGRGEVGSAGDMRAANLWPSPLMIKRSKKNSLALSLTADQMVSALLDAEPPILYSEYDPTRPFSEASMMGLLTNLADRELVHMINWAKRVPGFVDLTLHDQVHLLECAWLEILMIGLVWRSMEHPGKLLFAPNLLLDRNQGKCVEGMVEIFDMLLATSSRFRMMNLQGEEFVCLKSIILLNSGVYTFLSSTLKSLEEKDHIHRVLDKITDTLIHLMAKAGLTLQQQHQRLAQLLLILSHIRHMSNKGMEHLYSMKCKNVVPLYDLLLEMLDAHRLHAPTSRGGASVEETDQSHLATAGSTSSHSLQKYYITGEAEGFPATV
Chain of His6-ERα298-554 WT (ERα ligand-binding domain) (P03372 298-554): as the sequence (P03372 298-554 Y537S) above, with S240Y counted along it
Chain of His6-ERα298-554 D538G mutant (ERα ligand-binding domain) (P03372 298-554 D538G): as the sequence (P03372 298-554 Y537S) above, with S240Y, D241G counted along it

SMILES	DC50 (ERα in MCF7 cells)	% Degradation at 3 μM (ERα in MCF7 cells)	IC50 [1]	IC50 [2, 7]	IC50 [3]	IC50 [4, 7]	IC50 [5, 7]	IC50 [6]	IC50 ([2]; protocol with 3 nM estradiol)	IC50 ([4]; protocol with 3 nM estradiol)	IC50 ([5]; protocol with 3 nM estradiol)
Oc1ccc2c(c1)SCC(c1ccc(O)nc1F)=C2c1ccc(O[C@H]2CCN(CCCF)C2)cc1 [Example 46, 6-fluoro-5-[4-[4-[(3S)-1-(3-fluoropropyl)pyrrolidin-3-yl]oxyphenyl]-7-hydroxy-2H-thiochromen-3-yl]pyridin-2-ol]	0.2 nM	83%	0.1 nM	101 nM	2 nM	5 nM	59 nM	0.5 nM	–	–	–
Oc1ccc2c(c1)OCCC(c1ccc3cc[nH]c3c1)=C2c1ccc(O[C@H]2CCN(CCCF)C2)cc1 [Example 103, 5-[4-[(3S)-1-(3-fluoropropyl)pyrrolidin-3-yl]oxyphenyl]-4-(1H-indol-6-yl)-2,3-dihydro-1-benzoxepin-8-ol]	3 nM	89%	0.3 nM	–	4 nM	–	–	1 nM	252 nM	38 nM	101 nM
COc1c(C(=O)O)cccc1C1=C(c2ccc(O[C@H]3CCN(CCCF)C3)cc2)c2ccc(O)cc2OCC1 [Example 148, 3-[5-[4-[(3S)-1-(3-fluoropropyl)pyrrolidin-3-yl]oxyphenyl]-8-hydroxy-2,3-dihydro-1-benzoxepin-4-yl]-2-methoxy-benzoic acid]	448 nM	77%	222 nM	> 4000 nM	> 999 nM	> 4000 nM	> 4000 nM	314 nM	–	–	–
Cc1ccc(C2=C(c3cnc(O[C@H]4CCN(CCCF)C4)nc3)c3ccc(O)cc3SC2)c(F)c1 [Example 77, 3-(2-fluoro-4-methyl-phenyl)-4-[2-[(3S)-1-(3-fluoropropyl)pyrrolidin-3-yl]oxypyrimidin-5-yl]-2H-thiochromen-7-ol]	1 nM	91%	2 nM	323 nM	29 nM	16 nM	197 nM	5 nM	–	–	–
Cc1cc(C2=C(c3ccc(O[C@H]4CCN(CCCF)C4)nc3)c3ccc(O)c(F)c3CCC2)ccc1Cl [Example 250, 6-(4-chloro-3-methyl-phenyl)-1-fluoro-5-[6-[(3S)-1-(3-fluoropropyl)pyrrolidin-3-yl]oxy-3-pyridyl]-8,9-dihydro-7H-benzo[7]annulen-2-ol]	0.5 nM	87%	0.3 nM	113 nM	4 nM	7 nM	70 nM	0.3 nM	–	–	–
Cc1ccc(C2=C(c3ccc(O[C@H]4CCN(CCCF)C4)cc3)c3ccc(O)cc3[S+]([O-])C2)c(F)c1 (stereo partly drawn) [Example 57, 3-(2-fluoro-4-methyl-phenyl)-4-[4-[(3S)-1-(3-fluoropropyl)pyrrolidin-3-yl]oxyphenyl]-1-oxo-2H-thiochromen-7-ol]	3 nM	89%	33 nM	> 4000 nM	> 999 nM	1070 nM	> 4000 nM	> 999 nM	–	–	–
CCOc1ccc(C2=C(c3cnc(O[C@H]4CCN(CCCF)C4)nc3)c3ccc(O)cc3SC2)c(F)n1 [Example 76, 3-(6-ethoxy-2-fluoro-3-pyridyl)-4-[2-[(3S)-1-(3-fluoropropyl)pyrrolidin-3-yl]oxypyrimidin-5-yl]-2H-thiochromen-7-ol]	0.6 nM	88%	0.6 nM	100 nM	6 nM	4 nM	61 nM	1 nM	–	–	–
Oc1ccc2c(c1)C(c1ccc(N[C@H]3CCN(CCCF)C3)cc1)=C(c1ccc(F)cc1Cl)CC2 [Example 84, 7-(2-chloro-4-fluoro-phenyl)-8-[4-[[(3S)-1-(3-fluoropropyl)pyrrolidin-3-yl]amino]phenyl]-5,6-dihydronaphthalen-2-ol]	2 nM	78%	0.4 nM	–	6 nM	–	–	2 nM	1750 nM	30 nM	958 nM
Oc1ccc2c(c1)SCCC(c1ccc(SC(F)(F)F)cc1)=C2c1ccc(O[C@H]2CCN(CCCF)C2)cc1 [Example 222, 5-[4-[(3S)-1-(3-fluoropropyl)pyrrolidin-3-yl]oxyphenyl]-4-[4-(trifluoromethylsulfanyl)phenyl]-2,3-dihydro-1-benzothiepin-8-ol]	1 nM	80%	4 nM	371 nM	1 nM	18 nM	238 nM	0.4 nM	–	–	–
Oc1ccc2c(c1)SCC(c1ccc(OC(F)F)c(F)c1)=C2c1ccc(O[C@H]2CCN(CCCF)C2)cc1 [Example 30, 3-[4-(difluoromethoxy)-3-fluoro-phenyl]-4-[4-[(3S)-1-(3-fluoropropyl)pyrrolidin-3-yl]oxyphenyl]-2H-thiochromen-7-ol]	1 nM	91%	1 nM	–	16 nM	–	–	2 nM	694 nM	34 nM	415 nM
CC1(C)Cc2cc(C3=C(c4ccc(O[C@H]5CCN(CCCF)C5)cc4)c4ccc(O)cc4SCC3)ccc2N1 [Example 198, 4-(2,2-dimethylindolin-5-yl)-5-[4-[(3S)-1-(3-fluoropropyl)pyrrolidin-3-yl]oxyphenyl]-2,3-dihydro-1-benzothiepin-8-ol]	0.2 nM	87%	0.4 nM	–	6 nM	–	–	1 nM	8 nM	1 nM	6 nM
Oc1ccc2c(c1)C(c1ccc(O[C@H]3CCN(CCCF)C3)cc1)=C(c1ccc(SC(F)(F)F)cc1)CC2 [Example 9, 8-[4-[(3S)-1-(3-fluoropropyl)pyrrolidin-3-yl]oxyphenyl]-7-[4-(trifluoromethylsulfanyl)phenyl]-5,6-dihydronaphthalen-2-ol]	28 nM	79%	44 nM	> 4000 nM	> 999 nM	2290 nM	> 4000 nM	47 nM	–	–	–
